From patent US20080242635A1, “Method for Lengthening the Seasonal Mobility Period of Fish” (priority 2005, published 2008)

Legend:
[1] = tested on: fish; experiment: Lengthening the seasonal mobility period of fish by feed supplements; type: in vivo; details: for Lengthening of the seasonal mobility period of fish (in words): feed supplement
[2] = tested on: koi fish; experiment: Pond test: fish feed to lengthen the period of seasonal mobility of koi (Example 5); type: in vivo; details: relative index 1 to 5 (1 fully immobile, 5 fully mobile), 10 gram feed per day, additive per Table 1
Excerpt: Four ponds of 40 cubic meters each, all contained 50 koi fish with an approximate total body weight of 50 kg were used to show effectiveness of the fish feed according to the invention. One pond served as a control were the fish were fed with control feed, the fish in the other ponds received a feed according to the invention as prepared in examples 2 to 4 above. The experiment started when the temperature of the water was about 2 degrees Celsius.
The fish in control pond were fed with 10 gram Cyprico White 3 mm floater feed per day, whereas the fish in the other pond were fed with 10 gram of the feeds as described in Example 2, 3 and 4 Table 1).
This effect increased gradually every day until after 5 days the fish were fully mobile, whereas the temperature of the water was still between 2 and 3 degrees Celsius. Mobility of the fish was scored on a relative index of 1 to 5 wherein 1 is fully immobile and 5 is fully mobile Table 2). The water in the control pond was at exactly the same temperature as that of the other ponds, however the fish in the control pond were completely immobile. […] The fish were healthy and fully mobile whereas the control group was almost fully immobile.
Fish in ponds 1, 2 and 3 were fed with fish feed according to the invention, fish in pond 4 received control feed. Further details are described in the examples.

O=C(O)Cc1c[nH]c2ccccc12 [free IAA, indole-3-acetic acid]
Lengthening of the seasonal mobility period of fish (in words) [1]: Particularly good results
Mobility ([2]; day 1, water 2 degrees Celsius): 1
Mobility ([2]; day 2, water 2 degrees Celsius): 1
Mobility ([2]; day 3, water 3 degrees Celsius): 1
Mobility ([2]; day 4, water 3 degrees Celsius): 2
Mobility ([2]; day 5, water 3 degrees Celsius): 2
Mobility ([2]; day 8, water 3 degrees Celsius): 3
Mobility ([2]; day 12, water 3 degrees Celsius): 2
Mobility ([2]; day 16, water 4 degrees Celsius): 2
Mobility ([2]; day 20, water 5 degrees Celsius): 3
Mobility ([2]; day 24, water 5 degrees Celsius): 4
Mobility ([2]; day 28, water 6 degrees Celsius): 4

1,3 and 1,6 beta glucans
Lengthening of the seasonal mobility period of fish (in words) [1]: very useful
Daily intake, optimum of cost benefit ([1]; in vivo): around 60 ug/kglw/day
